From article PMC3227451, “Structure-based development of novel sirtuin inhibitors” (Aging (Albany NY), 2011)

Columns and labels:
[1] = biological target: T1, Sirt3 (Homo sapiens, UniProt Q9NTG7); experiment: Fluor-de-Lys peptide deacetylation assay, Sirt3; type: biochemical
T1 construct: Sirt3 residues 114-399; His-tag with linker comprising a TEV protease cleavage site (N); made in house; host or cells: E. coli
T1 sequence (Q9NTG7 114-399): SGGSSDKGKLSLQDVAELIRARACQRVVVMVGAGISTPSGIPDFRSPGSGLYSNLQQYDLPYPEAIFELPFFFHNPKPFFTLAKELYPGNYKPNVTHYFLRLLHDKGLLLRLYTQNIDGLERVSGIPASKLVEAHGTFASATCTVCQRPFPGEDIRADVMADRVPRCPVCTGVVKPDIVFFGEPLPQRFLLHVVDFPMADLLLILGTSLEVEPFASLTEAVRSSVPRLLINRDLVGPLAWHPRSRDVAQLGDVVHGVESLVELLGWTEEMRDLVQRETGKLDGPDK
In short: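 E. coli-expressed human Sirtuins with 0.5 mM NAD+ and 0.1 mM Fluor-de-Lys peptide: FdL-2 (QPK(acetyl-K)) for Sirt3, FdL-1 (RHK(acetyl-K)) for Sirt5. Compounds at 100 μM final; 30 min at 37 °C, then trypsin developer for 45 min at room temperature.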

[2] = biological target: T2, Sirt6 (Homo sapiens, UniProt Q8N6T7); experiment: Fluor-de-Lys peptide deacetylation assay, Sirt6; type: biochemical
T2 construct: Sirt6 residues 13-308; His-tag with linker comprising a TEV protease cleavage site (N, cleaved yes); made in house; host or cells: E. coli Rosetta2
In short: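 Fluor-de-Lys kit run with FdL-1 peptide RHK(acetyl-K), 0.1 mM, plus 0.5 mM NAD+. Compounds at 100 μM final, 30 min at 37 °C, then trypsin developer for 45 min at room temperature.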

[3] = biological target: T3, Sirt1 (Homo sapiens, UniProt Q96EB6); experiment: in vitro activity of Sirt1; type: biochemical; settings: concentration of 100 μM
T3 sequence (Q96EB6 1-747): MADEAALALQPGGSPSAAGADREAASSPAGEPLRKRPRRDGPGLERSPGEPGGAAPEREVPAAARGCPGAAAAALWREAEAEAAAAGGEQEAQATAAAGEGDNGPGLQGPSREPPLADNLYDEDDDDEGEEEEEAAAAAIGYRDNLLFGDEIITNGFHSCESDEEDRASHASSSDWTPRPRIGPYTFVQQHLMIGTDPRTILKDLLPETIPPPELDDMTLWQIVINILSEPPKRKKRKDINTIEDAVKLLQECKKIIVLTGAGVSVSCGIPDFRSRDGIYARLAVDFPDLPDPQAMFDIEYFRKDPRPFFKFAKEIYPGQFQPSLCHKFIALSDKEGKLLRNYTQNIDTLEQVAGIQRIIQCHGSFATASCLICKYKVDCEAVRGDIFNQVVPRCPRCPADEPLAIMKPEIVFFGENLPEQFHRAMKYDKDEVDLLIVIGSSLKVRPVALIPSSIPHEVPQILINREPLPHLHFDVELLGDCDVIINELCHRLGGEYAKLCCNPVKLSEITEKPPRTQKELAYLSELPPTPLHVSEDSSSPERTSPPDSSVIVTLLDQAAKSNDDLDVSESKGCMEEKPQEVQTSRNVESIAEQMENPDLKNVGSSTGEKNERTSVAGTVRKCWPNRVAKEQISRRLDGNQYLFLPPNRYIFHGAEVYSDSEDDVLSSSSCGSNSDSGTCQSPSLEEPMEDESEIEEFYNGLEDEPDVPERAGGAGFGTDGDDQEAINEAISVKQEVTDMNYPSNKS

[4] = tested on: HEK cells; experiment: Cytotoxicity testing on HEK cells

T2 sequence (Q8N6T7 13-308): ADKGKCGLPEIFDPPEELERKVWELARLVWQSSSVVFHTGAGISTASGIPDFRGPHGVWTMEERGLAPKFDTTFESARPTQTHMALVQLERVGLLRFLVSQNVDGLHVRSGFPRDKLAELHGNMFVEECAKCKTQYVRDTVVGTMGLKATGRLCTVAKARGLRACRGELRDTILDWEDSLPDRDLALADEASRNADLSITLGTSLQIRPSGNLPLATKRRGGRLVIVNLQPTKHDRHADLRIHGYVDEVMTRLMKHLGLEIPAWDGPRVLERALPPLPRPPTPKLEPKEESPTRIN

## CC12Cc3cnc(-c4ccccc4)nc3CC1CCC1C2CCC2(C)C1CCC2(C)O (stereo not shown) [CSC13, 1,11a,13a-trimethyl-8-phenyl-2,3,3a,3b,4,5,5a,6,11,11a,11b,12,13,13a-tetradecahydro-1H-cyclopenta[5,6]naphtho[1,2-g]quinazolin-1-ol]
[1]
  Effect on the activity of Sirt3: --- (key: inhibition: significant inhibitory effects (>25% loss of activity); ---: no such effect)
[2]
  Effect on the activity of Sirt6: --- (key: inhibition: significant inhibitory effects (>25% loss of activity); ---: no such effect)
[3]
  effect on the in vitro activity of Sirt1: only a weak inhibitory effect
[4]
  cytotoxicity: smaller effect
